Measurements: patent publication US10626140B2, “Prodrugs of 17β-HSD1-inhibitors” (FORENDO PHARMA LTD, priority 2014, dated 2020)
Entries after “also recorded” stand apart in the source; their conditions may differ. Where two headings read alike, the source gives them in different places.

What was measured:
Aqueous solubility test = format: physicochemical; details: for solubility: thermodynamic from solid
Procedure: The pH of the mixtures was held constant during the study. Excess amounts or a known amount of each component are added to 1 or 0.5 ml of buffer solution and the mixtures were stirred at rt for 48 hours or less, filtered (0.45 um Millipore) and analyzed by HPLC.

[1] = molecular target: T1, recombinant human 17β-HSD1 (Homo sapiens, UniProt P14061); experiment: Inhibition of recombinant human 17β-HSD1; format: biochemical; details: inhibitor 1 μM; 30 nM estrone, 1 mM NADPH, 30 min at RT; read-out: 17β-HDS1 Inhibition % at 1 μM
T1 construct: made in house; host or cells: Sd9 (Sf9) insect cells, baculovirus (Bac to Bac Expression System)
T1 sequence (P14061 1-328): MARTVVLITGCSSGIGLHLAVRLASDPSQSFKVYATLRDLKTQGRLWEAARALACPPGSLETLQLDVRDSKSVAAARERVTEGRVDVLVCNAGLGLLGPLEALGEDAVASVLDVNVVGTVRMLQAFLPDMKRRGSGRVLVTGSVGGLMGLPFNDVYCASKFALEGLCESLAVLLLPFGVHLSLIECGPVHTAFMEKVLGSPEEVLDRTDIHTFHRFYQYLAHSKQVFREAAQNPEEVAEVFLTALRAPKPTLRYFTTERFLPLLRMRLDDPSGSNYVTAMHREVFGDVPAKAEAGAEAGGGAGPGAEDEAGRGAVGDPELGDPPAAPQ
Procedure: 17β-HSD1 Production and Isolation:
Recombinant baculovirus was generated by the “Bac to Bac Expression System” (Invitrogen). Recombinant bacmid was transfected to Sd9 insect cells using “Cellfectin Reagent” (Invitrogen). 60 h later cells were harvested; the microsomal fraction was isolated as described by Puranen, T. J., Poutanen, M. H., Peltoketo, H. E., Vihko, P. T. and Vihko, R. K. (1994) Site-directed mutagenesis of the putative active site of human 17β-hydroxysteroid dehydrogenase type 1. Biochem. J. 304: 289-293. Aliquots were stored frozen until determination of enzymatic activity.
Assay—Inhibition of Recombinant Human 17β-HSD1:
Protein homogenate (0.1 μg/ml) was incubated in 20 mM KH2PO4 pH 7.4 with 30 nM estrone (including 800 000 cpm/ml of ^3H-estrone) and 1 mM NADPH for 30 min at RT, in the presence of the potential inhibitor at concentrations 1 μM or 0.1 μM. Inhibitor stock solutions were prepared in DMSO. Final concentration of DMSO was adjusted to 1% in all samples. The enzyme reaction was stopped by addition of 10% trichloroacetic acid (final concentration). Samples were centrifuged in a microtiter plate at 4000 rpm for 10 min. Supernatants were applied to reverse phase HPLC on a Waters Symmetry C18 column, equipped with a Waters Sentry Guard column. Isocratic HPLC runs were performed at RT at a flow rate of 1 ml/min in acetonitrile:water 48:52 as running solvent. Radioactivity was monitored in the eluate by a Packard Flow Scintillation Analyzer. Total radioactivity for estrone and estradiol were determined in each sample and percent conversion of estrone to estradiol was calculated according to the following formula:
(§1) [formula] Percent inhibition was calculated flowingly: % inhibition=100−% conversion

[2] = molecular target: T2, recombinant human 17β-HSD2 (Homo sapiens, UniProt P37059); experiment: Inhibition of recombinant human 17β-HSD2; format: biochemical; details: inhibitor 1 μM; 50 nM estradiol, 1 mM NADH, 30 min at RT
T2 construct: made in house; host or cells: Sd9 (Sf9) insect cells, baculovirus (Bac to Bac Expression System)
T2 sequence (P37059 1-387): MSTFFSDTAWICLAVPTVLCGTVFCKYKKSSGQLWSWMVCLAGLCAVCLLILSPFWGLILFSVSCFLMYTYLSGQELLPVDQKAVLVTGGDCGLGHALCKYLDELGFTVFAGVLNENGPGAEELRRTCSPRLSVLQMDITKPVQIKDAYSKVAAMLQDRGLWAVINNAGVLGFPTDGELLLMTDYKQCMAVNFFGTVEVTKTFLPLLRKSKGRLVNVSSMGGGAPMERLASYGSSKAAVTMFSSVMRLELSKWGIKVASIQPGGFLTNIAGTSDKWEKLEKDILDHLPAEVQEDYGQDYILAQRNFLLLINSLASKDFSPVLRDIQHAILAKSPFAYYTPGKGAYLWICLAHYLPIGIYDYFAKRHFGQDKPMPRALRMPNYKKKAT
Procedure: 17β-HSD2 Production and Isolation:
Similarly to 17β-HSD1 the Recombinant baculovirus was generated by the “Bac to Bac Expression System” (Invitrogen). Recombinant bacmid was transfected to Sd9 insect cells using “Cellfectin Reagent” (Invitrogen). 60 h later cells were harvested and supernatant were fractionated by the following protocol: • cells were dissolved into 40 ml of A-buffer (40 mM TRIS, pH8.0, 20% glycerol, 20 μM NAD, 0.4 mM PMSF, 150 mM NaCl, 0.5% dodecyl-β-maltoside+protease inhibitor cocktail) • cells were sonicated • lysate was incubated on ice for 15 min • lysate was centrifuged 5000 rpm 15 min, +4° C. • centrifugation of the supernatant 180 000 g 30 min, +4° C. • pellet was dissolved into 8 ml of A-buffer • not resuspended material was removed by centrifugation 5000 rpm 15 min, +4° C. • the clear supernatant was divided into 100 μl aliquots and were stored frozen until determination of enzymatic activity.
The amount of 17β-HSD2 was analysed by immunoblotting and total protein concentration of each extract batch was determined.
Assay—Inhibition of Recombinant Human 17β-HSD2:
Protein homogenate (4 μg/ml) was incubated in 20 mM KH2PO4 pH 8.5 with 50 nM estradiol (including 800 000 cpm/ml of ^3H-estradiol) and 1 mM […] for 30 min at RT, in the presence of the potential inhibitor at concentrations 1 μM or 0.1 μM. Inhibitor stock solutions were prepared in DMSO. Final concentration of DMSO was adjusted to 1% in all samples. The enzyme reaction was stopped by addition of 10% trichloroacetic acid (final concentration). Samples were centrifuged in a microtiter plate at 4000 rpm for 10 min. Supernatants were applied to reverse phase HPLC on a Waters Symmetry C18 column, equipped with a Waters Sentry Guard column. […] Radioactivity was monitored in the eluate by a Packard Flow Scintillation Analyzer. Total radioactivity for estrone and estradiol were determined in each sample and percent conversion of estradiol to estrone was calculated according to the following formula:
as §1

[3] = Metabolic stability assay; format: in vitro ADME; details: human liver homogenate or microsomes
Procedure: The in vitro metabolic stability of the parent compounds was determined for exemplified compounds using human liver microsome and homogenate incubations. The incubation time points used with or without appropriate cofactors were 0 min and 60 min. Samples were collected at both time points and substrates were detected using LC/PDA/TOF-MS. In vitro metabolic stability (% remaining after 60 min in human liver homogenate or microsomes) of the compounds were calculated and the results are summarized in Table 4.

| SMILES | inhibition at 1 µM [1] [%] | inhibition at 1 µM [2] [%] | In vitro metabolic stability, % remaining after 60 min [3] [%] | aqueous solubility (in words) (Aqueous solubility test; Table 5) | other results |
| --- | --- | --- | --- | --- | --- |
| CO/N=C1\C[C@@H](CCC(=O)Nc2ncc(C)s2)C2C3CCc4cc(OCOP(=O)(O)O)c(C(C)(C)C)cc4C3CC[C@]12C (stereo partly drawn) [Compound 15, (((13S,15R)-2-(tert-butyl)-17[(E)-methoxyimino]-13-methyl-15-(3-((5-methylthiazol-2-yl)amino)-3-oxopropyl)-7,8,9,11,12,13,14,15,16,17-decahydro-6H-cyclopenta[a]phenanthren-3-yl)oxy)methyl dihydrogen phosphate] | – | – | – | – | aqueous solubility (in words) (Aqueous solubility test): significant aqueous solubility |
| CCO/N=C1\C[C@@H](CCC(=O)Nc2ncc(C)s2)C2C3CCc4cc(O)c(C(C)(C)C)cc4C3CC[C@]12C (stereo partly drawn) [VIV-4, 3-{(13S,15R)-2-tert-Butyl-17-[(E)-ethoxyimino]-3-hydroxyl-13-methyl-7,8,9,11,12,13,14,15,16,17-decahydro-6H-cyclopenta[a]phenanthren-15-yl}-N-(5-methylthiazol-2-yl)propanamide] | 89 | 8 | – | – | – |
| CO/N=C1\C[C@@H](CCC(=O)Nc2ncc(C)s2)C2C3CCc4cc(O)c(C(C)(C)C)cc4C3CC[C@]12C (stereo partly drawn) [VIV-1, 3-{(13S,15R)-2-tert-Butyl-3-hydroxy-17-[(E)-methoxyimino]-13-methyl-7,8,9,11,12,13,14,15,16,17-decahydro-6H-cyclopenta[a]phenanthren-15-yl}-N-(5-methylthiazol-2-yl) propanamide] | 86 | 14 | 100 | – | solubility (Aqueous solubility test; pH 7.4, aqueous buffer): < 0.52 µg/mL |
| Cc1cnc(NC(=O)CC[C@@H]2CC(=O)[C@@]3(C)CCC4c5ccc(O)cc5CCC4C23)s1 (stereo partly drawn) [VII, reference compound] | – | – | 13 | – | – |
| Cc1cnc(NC(=O)CC[C@@H]2C/C(=N\O)[C@@]3(C)CCC4c5cc(C(C)(C)C)c(O)cc5CCC4C23)s1 (stereo partly drawn) [VIV-3, 3-{(13S,15R)-2-tert-Butyl-3-hydroxy-17-[(E)-hydroxyimino]-13-methyl-7,8,9,11,12,13,14,15,16,17-decahydro-6H-cyclopenta[a]phenanthren-15-yl}-N-(5-methylthiazol-2-yl)propanamide] | 95 | 41 | 100 | – | – |
| CO/N=C1\C[C@@H](CCC(=O)Nc2ncc(C)s2)C2C3CCc4cc(OC(=O)CN(C)C)c(C(C)(C)C)cc4C3CC[C@]12C.Cl (stereo partly drawn) [Compound 4a, (13S,15R)-2-(tert-butyl)-17[(E)-methoxyimino]-13-methyl-15-(3-((5-methylthiazol-2-yl)amino)-3-oxopropyl)-7,8,9,11,12,13,14,15,16,17-decahydro-6H-cyclopenta[a]phenanthren-3-yl dimethylglycinate hydrochloride] | – | – | – | improved aqueous solubility | solubility (Aqueous solubility test; aqueous buffer, buffer at pH 7.4, rt, read-out: Aqueous solubility, buffer at pH 7.4): 7.99 µg/mL |
| CO/N=C1\C[C@@H](CCC(=O)Nc2ncc(C)s2)C2C3CCc4cc(OP(=O)(O)O)c(C(C)(C)C)cc4C3CC[C@]12C (stereo partly drawn) [Compound 1] | – | – | – | improved aqueous solubility | – |
| CO/N=C1\C[C@@H](CCC(=O)Nc2ncc(C)s2)C2C3CCc4cc(OCOP(=O)(O)O)c(C(C)(C)C)cc4C3CC[C@]12C.[Na].[Na] (stereo partly drawn) [Compound 15a, (((13S,15R)-2-(tert-butyl)-17[(E)-methoxyimino]-13-methyl-15-(3-((5-methylthiazol-2-yl)amino)-3-oxopropyl)-7,8,9,11,12,13,14,15,16,17-decahydro-6H-cyclopenta[a]phenanthren-3-yl)oxy)methyl dihydrogen phosphate disodium salt] | – | – | – | improved aqueous solubility | solubility (Aqueous solubility test; buffer solution, aqueous buffer, buffer at pH 7.4, rt, read-out: Aqueous solubility, buffer at pH 7.4): > 30000 µg/mL |
| CO/N=C1\C[C@@H](CCC(=O)Nc2ncc(C)s2)C2C3CCc4cc(OP(=O)([O-])[O-])c(C(C)(C)C)cc4C3CC[C@]12C.[Na+].[Na+] (stereo partly drawn) [Compound 1a] | – | – | – | – | aqueous solubility (in words) (Aqueous solubility test; Table 5, disodium salt): improved aqueous solubility; also recorded: significant aqueous solubility; Aqueous solubility, buffer at pH 7.4 (Aqueous solubility test; buffer at pH 7.4, rt): over 32 mg/ml |
